Results: patent publication US6410561B1, “Amide derivatives and nociceptin antagonists” (Japan Tobacco Inc., priority 1998, dated 2002)
Structures can show the parent of a compound that is named as a salt. Where two headings read alike, the source gives them in different places.

Tests used:
ORL-1 receptor = target: T1, ORL-1 receptor (Homo sapiens, UniProt P41146); experiment: ORL1 receptor binding assay ([3H]nociceptin); settings: for Ki: calculated from IC50 and Kd of [3H]nociceptin; for IC50: membrane of human ORL-1 expression cells, [3H]nociceptin 0.5 nM
T1 construct: expressed in transfected cells
T1 sequence (P41146 whole entry): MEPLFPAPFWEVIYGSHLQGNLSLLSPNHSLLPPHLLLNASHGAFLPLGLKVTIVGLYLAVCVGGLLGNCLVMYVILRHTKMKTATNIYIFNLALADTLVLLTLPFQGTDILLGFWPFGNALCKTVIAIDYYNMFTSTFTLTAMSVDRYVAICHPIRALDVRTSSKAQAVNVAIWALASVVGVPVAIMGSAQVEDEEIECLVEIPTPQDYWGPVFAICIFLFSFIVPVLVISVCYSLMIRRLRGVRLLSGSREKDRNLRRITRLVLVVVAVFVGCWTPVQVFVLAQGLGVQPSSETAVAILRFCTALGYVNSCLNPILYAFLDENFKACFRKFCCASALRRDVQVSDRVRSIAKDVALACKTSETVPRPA
Method: ORL1 Receptor Binding Assay
A cell membrane suspension obtained from human ORL-1 expression cells was adjusted with Tris buffer [50 mM Tris, 2 mM EDTA, 0.1 mM (p-Amidinophenyl)methanesulfonyl Fluoride Hydrochloride (p-APMSF), 2 mg/ml BSA] to membrane protein amount of about 25 μg/ml (2.5 μg/well). This was mixed with [^3H]nociceptin (diluted with Tris buffer to a final concentration of 0.5 nM) and test compound (diluted with Tris buffer to a final concentration of 10 nM-10 μM), and the mixture was incubated at room temperature for 60 min. The membrane was recovered on a G/F-B filter (Packard, Unifilter 96GF/B) using a cell harvester and the reaction was stopped. After washing 3 times, the filter was dried at 42° C. for 1 hr. A scintillation solution (Packard, microscint-20) was added and the radioactivity (Packard, Top count A9912V) was assayed.
(§1) The nonspecific binding was the binding in the presence of 1 μM nociceptin and the difference between the total binding and nonspecific binding was taken as the specific binding. IC50 was calculated from inhibition of specific binding at each concentration of the compound, and Ki value of the test compound was calculated from this value and Kd value of [^3H]nociceptin.

allodynia model = experiment: Allodynia test (intrathecal nociceptin, tactile stimulation); assay type: in vivo, Mice; settings: Mus musculus, read-out: Allodynia M.E.D. (minimum effective dose)
Method: Mice (Crj, ICR, 4-week-old, male) were intrathecally administered with nociceptin (50 pg/5 μl) without anesthesia. For 20 min after administration and at 5 min intervals, an area from lateral region to tail of the mice was rubbed with a brush and the response of the mice was observed. The evaluation followed the criteria of 0; no change, 1; run or cry upon tactile stimulation, and 2; cry loud or dash away upon tactile stimulation. The test compound was suspended in a 0.5% MC solution and orally administered 60 min before nociceptin administration. The significant difference of the score of each administration group at 20 min after nociceptin administration from the group administered with solvent was analyzed with Mann-Whitny U-test.

μ receptor = target: T2, μ receptor (Rattus norvegicus, UniProt P33535); experiment: μ receptor binding assay ([3H]DAMGO); settings: for Ki: calculated from IC50 and Kd of [3H]DAMGO; for IC50: rat cerebrum membrane, [3H]DAMGO 1 nM
T2 construct: Rat cerebrum membrane standard sample; from tissue; host or cells: rat cerebrum membranes
T2 sequence (P33535 whole entry): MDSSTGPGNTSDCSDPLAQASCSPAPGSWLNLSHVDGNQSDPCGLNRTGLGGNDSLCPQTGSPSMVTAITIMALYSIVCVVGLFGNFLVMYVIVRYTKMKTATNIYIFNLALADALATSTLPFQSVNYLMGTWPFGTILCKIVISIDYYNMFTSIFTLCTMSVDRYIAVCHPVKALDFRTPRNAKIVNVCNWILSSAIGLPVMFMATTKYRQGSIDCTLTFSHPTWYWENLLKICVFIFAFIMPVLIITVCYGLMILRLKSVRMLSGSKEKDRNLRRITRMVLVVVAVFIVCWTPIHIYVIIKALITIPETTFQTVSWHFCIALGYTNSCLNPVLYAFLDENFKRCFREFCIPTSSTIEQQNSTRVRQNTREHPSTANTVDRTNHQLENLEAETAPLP
Method: Rat cerebrum membrane standard sample (final concentration 0.755 mg·protein/ml), [^3H]DAMGO (Try-D-Ala-Gly-NMe-Phe-Gly-ol) [diluted with Tris buffer (50 mM Tris-HCl, 0.1 mM p-APMSF, 2 mg/ml BSA (pH=7.4)) to a final concentration of 1 nM] and test compound (diluted with Tris buffer to a final concentration of 10 nM-10 μM) were mixed, and the mixture was incubated at room temperature for 90 min. The membrane was recovered on a G/F-B filter (same as above) using a cell harvester and the reaction was stopped. After washing 3 times, the filter was dried at 42° C. for 1 hr. A scintillation solution (same as above) was added and the radioactivity (same as above) was assayed.
as §1, with “10” for “1”, “naloxone” for “nociceptin”, “[^3H]DAMGO.” for “[^3H]nociceptin.”

[1] = mice, oral, 60 min before nociceptin 50 pg i.t., score at 20 min

Cc1cc(N)c2cc(NC(=O)c3ccccc3CCCCCCCOc3ccccc3)ccc2n1.Cl [Example 65]
Ki (ORL-1 receptor): 64 nM
IC50 (ORL-1 receptor): 1160 nM
minimal effective dose (allodynia model; [1]): > 3 mg/kg

Cc1ccc(OCc2ccccc2C(=O)Nc2ccc3nc(CO)cc(N)c3c2)cc1.Cl
melting point: 201 °C

Cc1cc(N)c2cc(NC(=O)c3ccccc3COc3cccc(C(F)(F)F)c3)ccc2n1.Cl
melting point: 253 °C

Cc1cc(N)c2cc(NC(=O)c3ccccc3COc3ccc([N+](=O)[O-])cc3)ccc2n1.Cl [Example 32, N-(4-amino-2-methyl-6-quinolyl)-2-[(4-nitrophenoxy)methyl]benzamide hydrochloride]
Ki (μ receptor): 227 nM
IC50 (μ receptor): 580 nM
minimal effective dose (allodynia model; po): > 0.3 mg/kg
melting point: 238 °C

Cc1cc(N)c2cc(NC(=O)c3ccccc3CCOc3ccccc3)ccc2n1.Cl [Example 62]
Ki (ORL-1 receptor): 125 nM
IC50 (ORL-1 receptor): 2360 nM
Ki (μ receptor): 783 nM
IC50 (μ receptor): 2000 nM
minimal effective dose (allodynia model; [1]): > 3 mg/kg

Cc1cc(N)c2cc(NC(=O)c3ccccc3CCCOc3ccccc3)ccc2n1.Cl [Example 61]
Ki (ORL-1 receptor): 63 nM
IC50 (ORL-1 receptor): 1220 nM
Ki (μ receptor): 2010 nM
IC50 (μ receptor): 5350 nM
minimal effective dose (allodynia model; [1]): 3 mg/kg

CCc1cc(N)c2cc(NC(=O)c3ccccc3COc3ccc(Cl)cc3Cl)ccc2n1 [Example 51]
Ki (ORL-1 receptor): 8 nM
IC50 (ORL-1 receptor): 170 nM
Ki (μ receptor): 525 nM
IC50 (μ receptor): 1400 nM

Cc1cc(N)c2cc(NC(=O)c3ccccc3CCCCc3ccccc3)ccc2n1.Cl
melting point: 233 °C

Cc1cc(N)c2cc(NC(=O)c3ccccc3COc3ccc(C(C)C)cc3)ccc2n1.Cl
melting point: 256 °C

Cc1cc(N)c2cc(NC(=O)c3ccccc3OCc3ccccc3)ccc2n1.Cl
melting point: 240 °C

Cl.Nc1ccnc2ccc(NC(=O)c3ccccc3COc3ccc(Cl)cc3)cc12
melting point: 231 °C

Cc1cc(N)c2cc(NC(=O)c3ccccc3COc3ccc4c(c3)CCO4)ccc2n1.Cl [Example 93]
Ki (ORL-1 receptor): 7 nM
IC50 (ORL-1 receptor): 120 nM
minimal effective dose (allodynia model; [1]): > 0.3 mg/kg
melting point: 233 °C

Cc1cc(N)c2cc(NC(=O)c3ccccc3COc3ccc(C(=O)O)cc3)ccc2n1.Cl
melting point: 225 °C

Cc1ccc(CCc2ccccc2C(=O)Nc2ccc3nc(C)cc(N)c3c2)cc1.Cl
melting point: > 300 °C

Cl.Nc1ccc(NC(=O)c2ccccc2COc2ccccc2)cc1
melting point: 241 °C

Cc1cc(N)c2cc(NC(=O)c3ccccc3CN(C(=O)OC(C)(C)C)c3ccc(Cl)cc3)ccc2n1.Cl
melting point: 208 °C

Cc1cc(N)c2cc(NC(=O)c3ccccc3COc3cccnc3)ccc2n1.Cl
melting point: 207 °C

Cc1cc(N)c2cc(NC(=O)c3ccccc3COc3ccc4c(c3)CCCC4)ccc2n1.Cl
melting point: 176 °C

Cc1cc(N)c2cc(NC(=O)c3ccccc3C[S+]([O-])c3ccc(Cl)cc3)ccc2n1.Cl (stereo not shown)
melting point: 221 °C

CNc1cc(C)nc2ccc(NC(=O)c3ccccc3COc3ccccc3)cc12.Cl
melting point: 284 °C

Cc1cc(N)c2cc(NC(=O)c3ccccc3COc3cccc(C#N)c3)ccc2n1.Cl
melting point: 195 °C

Cc1cc(N)c2cc(NC(=O)[C@@H]3CCCN3CCOc3ccc(Cl)cc3)ccc2n1 [Example 113]
melting point: 216 °C

Cc1cc(N)c2cc(NC(=O)c3ccccc3COc3ccc(CO)cc3)ccc2n1.Cl
melting point: 273 °C

Cc1cc(N)c2cc(NC(=O)[C@@H]3CCCN3CCCOc3ccc(Cl)cc3)ccc2n1 [Example 114]
melting point: 211 °C

Cc1cc(N)c2cc(NC(=O)c3sccc3COc3ccc(Cl)cc3)ccc2n1.Cl
melting point: 219 °C

Cc1cc(N)c2cc(NC(=O)c3ccccc3COc3ccc(N)cc3)ccc2n1 (as salt: hydrochloride) [Example 23, N-(4-amino-2-methyl-6-quinolyl)-2-[(4-aminophenoxy)methyl]benzamide dihydrochloride]
melting point: 237 °C

Cc1cc(N)c2cc(NC(=O)c3ccccc3COc3cccc(F)c3)ccc2n1.Cl
melting point: 255 °C

Cc1cc(N)c2cc(NC(=O)[C@H]3CCCN3CCOc3ccc(Cl)cc3)ccc2n1 [Example 115]
melting point: 253 °C

CSc1nc2ccc(NC(=O)c3ccccc3COc3ccccc3)cc2[nH]1.Cl
melting point: 191 °C

Cc1cc(N)c2cc(NC(=O)c3ccccc3COc3ccc(F)cc3)ccc2n1.Cl [Example 25, N-(4-amino-2-methyl-6-quinolyl)-2-[(4-fluorophenoxy)methyl]benzamide hydrochloride]
Ki (ORL-1 receptor): 8 nM
IC50 (ORL-1 receptor): 150 nM
Ki (μ receptor): 464 nM
IC50 (μ receptor): 1180 nM
minimal effective dose (allodynia model; [1]): > 0.3 mg/kg

COc1ccc(OCc2ccccc2C(=O)Nc2ccc3nc(C)cc(N)c3c2)cc1OC.Cl
melting point: 270 °C

Cc1cc(N)c2cc(NC(=O)c3ccccc3COc3ccccc3Cl)ccc2n1.Cl [Example 27, N-(4-amino-2-methyl-6-quinolyl)-2-[(2-chlorophenoxy)methyl]benzamide hydrochloride]
Ki (μ receptor): 414 nM
IC50 (μ receptor): 1060 nM
minimal effective dose (allodynia model; po): 0.3 mg/kg
melting point: 165 °C

COCc1ccccc1C(=O)Nc1ccc2nc(C)cc(N)c2c1.Cl
melting point: 244 °C

Cc1cc(N)c2cc(NC(=O)c3ccccc3COc3ccc4occc4c3)ccc2n1.Cl
melting point: 269 °C

Cc1cc(N)c2cc(NC(=O)c3cccc(CCc4ccccc4)c3)ccc2n1.Cl
melting point: > 300 °C

CCc1ccc(OCc2ccccc2C(=O)Nc2ccc3nccc(N)c3c2)cc1.Cl
melting point: 219 °C

Cc1cc(N)c2cc(NC(=O)c3ccccc3CCc3ccccc3)ccc2n1 [Example 71]
Ki (ORL-1 receptor): 89 nM
IC50 (ORL-1 receptor): 1770 nM
minimal effective dose (allodynia model; [1]): 30 mg/kg

Cl.Nc1c2c(nc3ccc(NC(=O)c4ccccc4COc4ccc(Cl)cc4)cc13)CCCC2
melting point: 283 °C

Cc1cc(N)c2cc(NC(=O)c3ccccc3COc3ccc(-c4ccccc4)cc3)ccc2n1.Cl
melting point: 268 °C

Cc1cc(N)c2cc(NC(=O)c3ccccc3CN(C)c3ccc(Cl)cc3)ccc2n1 [Example 101]
melting point: 214 °C

COc1cc(OC)cc(OCc2ccccc2C(=O)Nc2ccc3nc(C)cc(N)c3c2)c1.Cl [Example 10, N-(4-amino-2-methyl-6-quinolyl)-2-[(3,5-dimethoxyphenoxy)methyl]benzamide hydrochloride]
Ki (ORL-1 receptor): 53 nM
IC50 (ORL-1 receptor): 1020 nM
Ki (μ receptor): 324 nM
IC50 (μ receptor): 860 nM
minimal effective dose (allodynia model; [1]): 3 mg/kg

CC(=O)OCc1ccc(OCc2ccccc2C(=O)Nc2ccc3nc(C)cc(N)c3c2)cc1.Cl
melting point: 258 °C

COc1cccc(OCc2ccccc2C(=O)Nc2ccc3nc(C)cc(N)c3c2)c1.Cl
melting point: 224 °C

Cl.Nc1cccc2ccc(NC(=O)c3ccccc3COc3ccccc3)cc12
melting point: 237 °C

Cc1cc(N)c2cc(NC(=O)c3ccccc3CCCCCCc3ccccc3)ccc2n1.Cl
melting point: 213 °C

Cc1cc(N)c2cc(NC(=O)c3ccccc3CNc3ccc(Cl)cc3)ccc2n1 [Example 102]
melting point: 274 °C

Cc1cc(N)c2cc(NC(=O)c3ccccc3COc3ccc(N(C)C)cc3)ccc2n1 (as salt: hydrochloride)
melting point: 233 °C

Cc1cc(N)c2cc(NC(=O)c3ccccc3CCCCOc3ccccc3)ccc2n1.Cl [Example 63]
Ki (ORL-1 receptor): 54 nM
IC50 (ORL-1 receptor): 1030 nM
Ki (μ receptor): 545 nM
IC50 (μ receptor): 1420 nM
minimal effective dose (allodynia model; [1]): > 3 mg/kg

Cc1cc(N)c2cc(NC(=O)c3ccccc3COc3ccc(I)cc3)ccc2n1 [Example 38, N-(4-amino-2-methyl-6-quinolyl)-2-[(4-iodophenoxy)methyl]benzamide]
Ki (ORL-1 receptor): 5 nM
IC50 (ORL-1 receptor): 90 nM
Ki (μ receptor): 1020 nM
IC50 (μ receptor): 2670 nM
minimal effective dose (allodynia model; [1]): > 0.3 mg/kg

Cc1cc(N)c2cc(NC(=O)c3ccccc3CSc3ccc(Cl)cc3)ccc2n1.Cl
melting point: 216 °C

COC(=O)c1ccc(OCc2ccccc2C(=O)Nc2ccc3nc(C)cc(N)c3c2)cc1.Cl
melting point: 262 °C
